According to the CheMixHub ionic liquid set:

Assay: xn = mol fraction of the nth substance listed

O=S(=O)([O-])C(F)(F)F.[Li+] + O
Details | electrical conductivity, 298.1 K [S/m] | electrical conductivity, 298.15 K [S/m] | electrical conductivity, 308.15 K [S/m] | electrical conductivity, 318.15 K [S/m] | electrical conductivity, 328.15 K [S/m] | viscosity, 298.15 K [mPa·s] | viscosity, 308.15 K [mPa·s] | viscosity, 318.15 K [mPa·s] | viscosity, 328.15 K [mPa·s]
100 kPa, x1 = 0.1122 | – | 7.3 | 8.94 | 10.9 | 12.7 | 3.7 | 2.9 | 2.27 | 1.85
100 kPa, x1 = 0.1783 | – | 4.63 | 5.73 | 6.99 | 8.17 | 9.2 | 6.9 | 5.3 | 4.2
100 kPa, x1 = 0.2388 | – | 2.6 | 3.26 | 4.06 | 4.89 | 21.9 | 16 | 11.1 | 8.6
100 kPa, x1 = 0.2541 | – | 1.98 | 2.53 | 3.16 | 3.92 | 31.8 | 22.6 | 15.9 | 12.2
100 kPa, x1 = 0.2743 | – | 1.56 | 2.04 | 2.59 | 3.2 | 47.2 | 32.9 | 23.9 | 18.1
101 kPa, x1 = 0.01944 | 4.69 | – | – | – | – | – | – | – | –
101 kPa, x1 = 0.1527 | 4.69 | – | – | – | – | – | – | – | –
101 kPa, x1 = 0.2649 | 1.34 | – | – | – | – | – | – | – | –
101 kPa, x1 = 0.3106 | 0.51 | – | – | – | – | – | – | – | –
